Numbered stars: 1 amine (or outer) side, 2 acyl side, 3 side chain; on linkers, the order of the positions; unused ones are H or OH. Square brackets hold non-standard residues; d marks the D form. Side chains are listed from the residue outwards. Peptide text beside a SMILES is read from it. * marks the point of attachment. C18 diacid = O=C(O)CCCCCCCCCCCCCCCCC(=O)*; γGlu = O=C(O)[C@H](CCC(=O)[*:2])N[*:1]; AEEA = NCCOCCOCC(=O)O; Aib = CC(C)(N)C(=O)O
What was measured:
in vivo = settings: mouse, sc
Procedure: Compound exposure was measured by Luminescence Oxygen Channeling Immunoassay (LOCI). […] The three reactants were combined with the analyte and formed a two-sited immuno-complex. Illumination of the complex released singlet oxygen […] from the donor beads. They were channeled into the acceptor beads and triggered a chemiluminescence response which was measured in an EnVision plate reader (PerkinElmer). The amount of light was proportional to the concentration of the analyte. As calibrators, a dilution line of the relevant analyte in rat/mouse plasma was included.
Plasma concentration-time profiles were analysed using non-compartmental analysis (NCA) using Phoenix WinNonlin Professional 6.3 (Pharsight, Mountain View, CA, US). Calculations were performed using full concentration-time profile values or sparse sampling concentration-time values as appropriate.

DIO rats = assay: Oral glucose tolerance in DIO rats at steady state; format: in vivo, rat; settings: 3 nmol/kg s.c. once daily, 3 g/kg oral glucose, p<0.05
Procedure: Oral glucose tolerance was evaluated on study day 15, 5 h post-dosing (at Cmax). Animals were fasted for 5 h prior to oral administration of glucose (3 g/kg). […] Conscious animals were MR-scanned prior to initiation of treatment and at the end of the treatment period.

DIO mice [1] = assay: Subchronic effect on energy expenditure in DIO mice (indirect calorimetry); format: in vivo, mouse; settings: 5 nmol/kg s.c. once daily, eleven days
Procedure: DIO mice (n = 8) were treated once daily s.c. in the morning for eleven days with vehicle or 5 nmol/kg NN1177. Forty-eight hours prior to first dose and during the study, the metabolic phenotype was determined using the PhenoMaster system (TSE Systems GmbH, Bad Homburg, Germany). During this period, air flow, temperature, oxygen- and carbon dioxide content, oxygen uptake (VO2) and carbon dioxide production (VCO2) were simultaneously measured using standard indirect calorimetry analysis. The respiratory exchange rate (RER) and energy expenditure (EE) were calculated automatically from VO2 and VCO2. Furthermore, voluntary activity in x-y dimensions was determined. All parameters were measured simultaneously for one min per cage in two cages at a time, resulting in a time resolution of data points of 9 min. Statistical analysis was performed as one-way ANOVA followed by Dunnets post-hoc test. Statistics on body weight was performed as one-way ANOVA at the last day of treatment. Statistics on energy expenditure data was calculated using two-way ANOVA with repeated measures with Bonferroni’s post hoc test. Statistical analysis was performed on average light-dark period values (only raw data, no mean data is presented). p<0.05 was considered statistically significant. GraphPad Prism 6.4 (GraphPad) was used for all in vivo data visualization as well as statistical analyses.

DIO mice [2] = assay: Acute effect on glucose tolerance in DIO mice (IPGTT); format: in vivo, mouse; settings: 3 or 5 nmol/kg s.c., at Cmax and at Cmin, p<0.001
Procedure: All animals received a single s.c. injection of compound at 4 pm, 21 h prior to administration of glucose (for all treated animals to have equally affected food intake in the dark period prior to the intraperitoneal glucose tolerance test (IPGTT)). […] Animals were fasted for 5–6 h prior to intraperitoneal (i.p.) injection of 2 g/kg glucose.

With `CC(C)C[C@H](NC(=O)[C@H](CC(C)C)NC(=O)[C@H](Cc1c[nH]c2ccccc12)NC(=O)[C@H](CCC(N)=O)NC(=O)[C@@H](NC(=O)[C@H](Cc1ccccc1)NC(=O)[C@H](CCC(=O)O)NC(=O)[C@H](CCCNC(=N)N)NC(=O)[C@H](C)NC(=O)[C@H](C)NC(=O)[C@H](CCCNC(=N)N)NC(=O)[C@H](CO)NC(=O)[C@H](CC(=O)O)NC(=O)[C@H](CC(C)C)NC(=O)[C@H](Cc1ccc(O)cc1)NC(=O)[C@H](CCCCN)NC(=O)[C@H](CO)NC(=O)[C@H](CC(C)C)NC(=O)[C@H](CC(=O)O)NC(=O)[C@H](CO)NC(=O)[C@@H](NC(=O)[C@H](Cc1ccccc1)NC(=O)[C@@H](NC(=O)CNC(=O)[C@H](CCC(=O)O)NC(=O)C(C)(C)NC(=O)[C@@H](N)Cc1c[nH]cn1)[C@@H](C)O)[C@@H](C)O)C(C)C)C(=O)N[C@@H](CC(N)=O)C(=O)N[C@@H](CCCCNC(=O)CC[C@H](NC(=O)CC[C@H](NC(=O)COCCOCCNC(=O)COCCOCCNC(=O)CC[C@H](NC(=O)CCCCCCCCCCCCCCCCC(=O)O)C(=O)O)C(=O)O)C(=O)O)C(N)=O` [GLP-1 reference] (H-H[Aib]EGTFTSDLSKYLDSRAAREFVQWLLNK([γGlu-γGlu-AEEA-AEEA-γGlu-C18 diacid])-NH2) the half-life (in vivo) was 11 h.
For `CC(C)C[C@H](NC(=O)[C@H](Cc1ccc(O)cc1)NC(=O)[C@H](CCCCN)NC(=O)[C@H](CO)NC(=O)[C@H](CC(C)C)NC(=O)[C@H](CC(=O)O)NC(=O)[C@H](CO)NC(=O)[C@@H](NC(=O)[C@H](Cc1ccccc1)NC(=O)[C@@H](NC(=O)CNC(=O)[C@H](CCC(N)=O)NC(=O)C(C)(C)NC(=O)[C@@H](N)Cc1c[nH]cn1)[C@@H](C)O)[C@@H](C)O)C(=O)N[C@@H](CCC(=O)O)C(=O)N[C@@H](CO)C(=O)N[C@@H](CCCCN)C(=O)N[C@@H](CCCNC(=N)N)C(=O)N[C@@H](C)C(=O)N[C@@H](CCCNC(=N)N)C(=O)N[C@@H](CCC(=O)O)C(=O)N[C@@H](Cc1ccccc1)C(=O)N[C@H](C(=O)N[C@@H](CCC(N)=O)C(=O)N[C@@H](Cc1c[nH]c2ccccc12)C(=O)N[C@@H](CC(C)C)C(=O)N[C@@H](CC(C)C)C(=O)N[C@@H](CCCCNC(=O)CC[C@H](NC(=O)CC[C@H](NC(=O)[C@H](CO)NC(=O)[C@H](CCC(=O)O)NC(=O)[C@H](CO)NC(=O)CC[C@H](NC(=O)CC[C@H](NC(=O)CCCCCCCCCCCCCCCCC(=O)O)C(=O)O)C(=O)O)C(=O)O)C(=O)O)C(=O)N[C@H](C(N)=O)[C@@H](C)O)C(C)C` [NN1177] (H-H[Aib]QGTFTSDLSKYLESKRAREFVQWLLK([γGlu-γGlu-Ser-Glu-Ser-γGlu-γGlu-C18 diacid])T-NH2), the “Oral glucose tolerance vs vehicle” value (DIO rats) was “significantly impaired”, the “Body weight loss during treatment period” value (DIO mice [1]) was “approximately 30%” and the Physical activity (DIO mice [1]) was “not affected”. For the same molecule, the “Respiratory exchange ratio (RER)” value (DIO mice [1]; light and dark period, p<0.001) was “decreased significantly”, the “Energy expenditure per body weight” value (DIO mice [1]; light and dark period, p<0.01 day 3, p<0.001 day 5–11) was “increased” and the “Glucose tolerance (IPGTT) vs vehicle” value (DIO mice [2]; 2 g/kg glucose i.p.) was “improved”. The “Basal blood glucose vs vehicle” value (DIO mice [2]) was “improved”.
